{"source": "patent US7807176B2", "about": "“Polypeptide promoting vascular endothelial cell growth” (Genomidea, Inc., priority 2004, dated 2010)", "key": {"microorganism": {"system": "microorganism", "assay": "Antimicrobial activity, minimum inhibitory concentration on microtiter plate", "type": "cell-based", "conditions": "Example 7, method only, MIC not given", "procedure": "The antimicrobial activity is evaluated according to US National Committee for Clinical Laboratory Standard (NCCL Documents M7-A3). That is, the minimum concentration of the peptide at which microbial growth is inhibited is determined on a microtiter plate. A microorganism is cultured for 16 hours and then the absorbance at A600 thereof measured. From correlation of predetermined turbidity with colony forming unit (CFU), the […] is diluted with a medium to attain a specified CFU. Each microorganism strain is added at about 5×10^5 CFU/ml (final concentration). 5 mM aqueous solution of each peptide and 1.6 mM solution using a medium are prepared and used in serial dilution. 50 μl peptide at each concentration is pipetted into each well of a microtiter plate into which 50 μl/well microbial suspension has been pipetted (the final concentration of the peptide is 3.1 μM to 800 μM). A well to which the peptide was not added is used as the negative control. […] The concentration shown as results is MIC (μM). According to this method, the antimicrobial activity of the F2 peptide is determined."}, "[1]": {"system": "connective tissue growth factor (CTGF) mRNA", "assay": "Growth factor mRNA expression level: CTGF", "type": "cell-based"}, "[2]": {"system": "transforming growth factor (TGF-β) mRNA", "assay": "Growth factor mRNA expression level: TGF-β", "type": "cell-based"}, "HAEC": {"system": "HAEC", "assay": "MTS assay of endothelial cell proliferation with added peptide", "type": "cell-based, human", "conditions": "for endothelial proliferation Increase [times]: MTS, Table 3", "procedure": "F2 peptide was synthesized and then contacted in a varying amount with HAEC, and the ability thereof to proliferate the cells was examined by MTS assay. The MTS assay is a modification of the MTT assay, and is a method of measuring living cells based on a reaction of reducing tetrazolium salt (MTS) by living cells in culture, into a colored product formazan. Specifically, this assay is carried out as follows: • HAEC was inoculated onto a 96-well plate at a density of 750 cells/well. • 2 μl/well of each sample was added to 100 μl/well endothelial cell medium (1% FBS, without EGF). 2 μl/well was added every day (until Day 6) (the medium was not exchanged). • 20 μl measurement solution (Cell Titer 96 AQueous One Solution Cell Proliferation Assay (Promega)) was added to each well and mixed with 100 μl of the endothelial cell medium, and the old medium was removed by suction. A mixed suspension of the measurement solution and the cells was put in a volume of 120 μl/well and then incubated for 1 to 5 hours in a CO2 incubator. • The absorbance at 490 nm was measured with a plate reader.\nThe sample group (8 wells each) is as follows: • NC: Only EBM medium (endothelial cell medium) containing 1% FBS. The other samples were cultured by adding various peptides to this medium containing serum. • VEGF-A: Recombinant VEGF-A (KURABO) was added at a final concentration of 10 ng/ml. • F2-1: F2 peptide was added at a final concentration of 1 ng/ml. • F2-10: F2 peptide was added at a final concentration of 10 ng/ml. • F2-100: F2 peptide was added at a final concentration of 100 ng/ml. • F2-1000: F2 peptide was added at a final concentration of 1000 ng/ml."}, "HEAC endothelial cells": {"system": "HEAC endothelial cells", "assay": "Endothelial cell migration, modified Boyden chamber", "type": "cell-based, human", "conditions": "for migration % Increase: 4 hours", "procedure": "A polyvinyl pyrrolidone (PVP)-free polycarbonate membrane having […] (Neuro Probe Inc., Gaithersburg, Md.) was coated overnight with 0.1% gelatin and then washed with phosphate buffered saline to remove an excess of the gelatin coating. Then, 28 μl growth factor-free EBM2 medium supplemented with 1% FBS was arranged in a lower chamber, and the membrane was arranged on the lower chamber. […] The Boyden chamber was incubated at 37° C. for 4 hours. After incubation, the membrane was removed and the cells on the upper side of the membrane were removed. The cells on the lower side of the membrane were stained with Diff-Quick (Sysmex, Hyogo Pref., JP). The cells in each of randomly selected 8 visual fields (×100) were counted."}}, "note": "Entries after “also recorded” stand apart in the source; their conditions may differ."}
{"sequence": "MLSLIFLHRLKSMRKRLDRKLRFWHRKNYP (listed as Homo sapiens) [F2 peptide]", "values": [{"measurement": "antimicrobial activity", "setting": "microorganism", "result": "has an antimicrobial activity"}, {"measurement": "effect on mRNA level of CTGF (in words)", "setting": "[1]", "result": "did not have any effect"}, {"measurement": "CTGF mRNA Increased Amount [times]", "setting": "[1]; 24 hrs", "result": 0.2, "unit": "times"}, {"measurement": "CTGF mRNA Increased Amount [times]", "setting": "[1]; 48 hrs", "result": 1.1, "unit": "times"}, {"measurement": "CTGF mRNA Increased Amount [times]", "setting": "[1]; 72 hrs", "result": 0.5, "unit": "times"}, {"measurement": "effect on mRNA level of TGF-β (in words)", "setting": "[2]", "result": "did not have any effect"}, {"measurement": "TGF-b mRNA Increased Amount [times]", "setting": "[2]; 24 hrs", "result": 2.6, "unit": "times"}, {"measurement": "TGF-b mRNA Increased Amount [times]", "setting": "[2]; 48 hrs", "result": 13.6, "unit": "times"}, {"measurement": "TGF-b mRNA Increased Amount [times]", "setting": "[2]; 72 hrs", "result": 1.6, "unit": "times"}, {"measurement": "endothelial proliferation Increase [times]", "setting": "HAEC; 100 ng/ml", "result": 1.23, "unit": "times"}, {"measurement": "endothelial proliferation Increase [times]", "setting": "HAEC; 1 μg/ml", "result": 1.475, "unit": "times"}, {"measurement": "cell proliferation ability (MTS assay, absorbance at 490 nm)", "setting": "HAEC; F2 peptide 1 to 1000 ng/ml added every day until Day 6, VEGF-A 10 ng/ml, FIG. 9", "result": "recognized in a dose-dependent manner, similar to VEGF protein; also recorded: stronger activity of enhancing proliferation of HEAC than VEGF"}, {"measurement": "migration % Increase", "setting": "HEAC endothelial cells; 10 ng/ml", "result": 88.5, "unit": "%"}, {"measurement": "migration % Increase", "setting": "HEAC endothelial cells; 100 ng/ml", "result": 102.5, "unit": "%"}, {"measurement": "migration % Increase", "setting": "HEAC endothelial cells; 1 μg/ml", "result": 129.8, "unit": "%"}, {"measurement": "cell migration activity (in words)", "setting": "HEAC endothelial cells; F2 0.01 to 1 μg/ml, control peptide 1 μg/ml, VEGF 50 ng/ml, FIG. 10", "result": "significantly increased in a concentration-dependent manner; also recorded: higher than that of VEGF (50 ng/ml)"}]}
